Test results as given in paper PMC7932537, “Quantitative profiling of protease specificity” (PLoS Computational Biology, 2021).

Assays:
[1] = system: MMP-9; assay: Substrate phage display with NGS: relative probability (RP) of P3-P1' tetramer clusters; format: biochemical, human; settings: MMP9; RP of the substrate's P3-P1' tetramer, substrate phage display with NGS;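 also: ratio of tetramer probability after protease selection to that in naive phage library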
[2] = biological target: T1, MMP-2 (Homo sapiens, UniProt P08253); assay: K(obs) of individual phage substrates (set of 1369); format: biochemical; settings: MMP2; individual phage substrate from the set of 1369 peptides; hyphen in the sequence marks the cleavage position
T1 sequence (P08253 110-660): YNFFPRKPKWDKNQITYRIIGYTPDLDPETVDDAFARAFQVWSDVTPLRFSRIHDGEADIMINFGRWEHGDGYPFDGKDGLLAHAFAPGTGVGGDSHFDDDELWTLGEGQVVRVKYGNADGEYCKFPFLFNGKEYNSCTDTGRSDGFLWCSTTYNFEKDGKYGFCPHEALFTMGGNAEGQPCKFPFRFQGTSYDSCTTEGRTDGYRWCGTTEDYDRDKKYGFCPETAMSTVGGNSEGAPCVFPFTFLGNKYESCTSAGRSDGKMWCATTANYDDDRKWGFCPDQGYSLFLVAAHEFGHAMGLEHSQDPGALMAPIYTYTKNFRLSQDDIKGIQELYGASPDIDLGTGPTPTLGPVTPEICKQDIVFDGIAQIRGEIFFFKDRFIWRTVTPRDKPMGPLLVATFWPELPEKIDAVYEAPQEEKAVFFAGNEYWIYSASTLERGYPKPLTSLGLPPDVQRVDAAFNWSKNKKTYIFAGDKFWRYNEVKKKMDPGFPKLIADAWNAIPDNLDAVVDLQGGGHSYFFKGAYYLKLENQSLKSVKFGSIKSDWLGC

[3] = biological target: MMP-9 (Homo sapiens, UniProt P14780); assay: as above; format: biochemical; settings: MMP9; individual phage substrate of the set of 1369 peptides; dash in sequence marks cleavage position
MMP-9 (Homo sapiens, UniProt P14780), sequence (P14780 94-707): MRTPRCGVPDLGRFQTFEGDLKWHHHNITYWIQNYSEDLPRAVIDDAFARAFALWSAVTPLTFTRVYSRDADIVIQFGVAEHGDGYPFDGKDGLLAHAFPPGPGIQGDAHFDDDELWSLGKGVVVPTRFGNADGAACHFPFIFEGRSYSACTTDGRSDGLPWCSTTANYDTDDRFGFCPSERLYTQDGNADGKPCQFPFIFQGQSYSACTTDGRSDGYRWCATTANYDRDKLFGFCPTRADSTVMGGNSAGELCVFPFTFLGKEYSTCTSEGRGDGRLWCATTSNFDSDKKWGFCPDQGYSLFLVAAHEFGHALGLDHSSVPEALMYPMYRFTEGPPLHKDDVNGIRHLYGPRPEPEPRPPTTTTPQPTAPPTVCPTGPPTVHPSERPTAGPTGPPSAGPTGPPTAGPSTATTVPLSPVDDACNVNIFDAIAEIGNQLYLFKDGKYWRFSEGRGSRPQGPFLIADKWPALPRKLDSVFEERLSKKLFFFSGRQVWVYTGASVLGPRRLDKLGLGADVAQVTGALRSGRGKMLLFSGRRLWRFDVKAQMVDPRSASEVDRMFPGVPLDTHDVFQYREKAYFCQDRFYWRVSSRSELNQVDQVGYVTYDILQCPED

Substance	relative probability (RP) [1]	Kobs [2] [M⁻¹ s⁻¹]	Kobs [3] [M⁻¹ s⁻¹]
GRPAQ-MKTAS	38.7952	3850.82	5667.28
GRPLN-LSTAS	48.0943	12792.1	12792.1
GRPRS-LLTAS	44.7764	12792.1	7815.03
GRPSA-MTTAS	46.4881	3741.87	9740.44
GRPSF-LKTAS	37.0272	12792.1	8321.48
GRPSP-FWTAS	37.3217	12792.1	3850.82
GRPVN-LTTAS	46.0636	12792.1	12792.1
GSAIP-LWTAS	32.5296	1418.96	2038.8
GSGRG-LWSET	11.4523	799.117	1373.05
GSHAA-LRTAS	0.9522	12792.1	0
GSPLP-FITAS	46.6229	12792.1	12792.1
GSPRN-LRTAS	48.2698	12792.1	12792.1
GTPIE-LYTAS	35.3641	8321.48	9740.44
GTPRN-IKTAS	46.5688	12792.1	12792.1
GVLRN-LITAS	37.603	12792.1	6688.74
GVPKN-QMTAS	35.1259	4205.91	7815.03
GVPRA-VTASG	40.8515	6396.07	12792.1
GVPRG-VRTAS	42.1832	12792.1	10866.7
GVPRY-LRTAS	44.5304	12792.1	12792.1

Substance	relative probability (RP) [1]	Kobs [2] [M⁻¹ s⁻¹]	Kobs [3] [M⁻¹ s⁻¹]
GVPSK-LTASG	38.9571	12792.1	12792.1
GVVGA-LRTAS	19.0529	10866.7	874.197
GWIAT-LRTAS	0.199	5090.5	1561.44
GWPSE-LRTAS	41.3266	12792.1	12792.1
GYFAN-LTASG	0.8121	12792.1	0
GYPAG-LRTAS	47.2274	12792.1	12792.1
GYPRG-LGTAS	47.3825	12792.1	12792.1
HAPSL-YTASG	23.6706	12792.1	12792.1
HKIAL-LTASG	0.8483	7386.83	56.119
HMPLG-LTASG	48.9856	12792.1	12792.1
HRPEW-YTASG	25.7162	3741.87	4082.43
HTVRG-LTASG	42.3063	12792.1	12792.1
HTVRN-VTASG	19.0254	5269.78	3079.62
HTVYW-MTASG	40.8648	2038.8	6396.07
HVPRQ-VTASG	25.107	27.918	8941.32
HVVAK-MTASG	0.5992	6396.07	1981.53
HVVAQ-LTASG	6.994	12792.1	551.253
HYVRA-HTASG	18.814	10866.7	4205.91
IAPAK-LTASG	39.5582	12792.1	12792.1

Substance	relative probability (RP) [1]	Kobs [2] [M⁻¹ s⁻¹]	Kobs [3] [M⁻¹ s⁻¹]
IAPEF-LTASG	20.835	12792.1	12792.1
IFARS-LTASG	26.1862	12792.1	12792.1
IFPAN-HTASG	10.2001	12792.1	5090.5
IGVRA-LTASG	43.1929	12792.1	12792.1
IGVRQ-LTASG	23.9228	3536.02	12792.1
ILLSP-LTASG	4.611	12792.1	1030.73
ILVWN-YTASG	30.7196	4922.1	12792.1
IMHRA-LTASG	18.7073	12792.1	9740.44
KAPAH-LTASG	44.1453	12792.1	12792.1
KDPKF-LTASG	42.7484	4613.14	10866.7
KFPAS-LTASG	46.2982	12792.1	12792.1
KFPWN-YTASG	48.0713	2097.28	12792.1
KGPSG-LTASG	47.388	12792.1	10866.7
KHPYK-YTASG	33.5853	1816.46	12792.1
KIPSA-LTASG	47.6113	12792.1	9740.44
KMPST-LTASG	36.3405	12792.1	6396.07
KQLAS-LTASG	2.45	12792.1	690.17
KRLAF-LTASG	0.6348	12792.1	912.511
KRVYL-LTASG	2.817	484.315	2687.73
